Our source for the IC50 values is patent US20130158040A1, “DIAZAINDOLE INHIBITORS OF CRAC” (Hoffmann-La Roche Inc., priority 2011, published 2013).

The subject of this assay is Jurkat cell. The experiment in a line: Jurkat IL-2 Production Assay. Conditions: Homo sapiens; IL-2 production in Jurkat cells; 18 h~20 h incubation; serum/stimulant condition (1% FBS with PHA or 30% FBS with PMA/Ionomycin) not specified. The class given is cell-based. The protocol: Jurkat IL-2 Production Assay
Jurkat cell (ATCC) was grown in RPMI 1640 with 10% FBS and 1% penicillin/streptomycin. The cell density was kept at 1.2˜1.8×10^6/mL in culture flask before seeding into culture plate, and the cell density in the plate was 0.5×10^6/[…]/well.
RPMI 1640 with 1% FBS or 30% FBS for high serum assay.
serial dilution was done in 100% DMSO, and intermediate dilution was done with RPMI 1640 medium with 1% FBS. The DMSO final concentration in culture well was 0.25%.
PHA (Sigma#L9017-10MG) was used for the assay with 1% FBS in culture medium, and added after 10 minutes exposure of cell to compound/DMSO. The PHA final concentration in culture well was 5 μg/mL. PMA (Sigma# P-8139 5MG)/Ionomycin (Sigma#10634-5MG) was used for the assay with 30% FBS in culture medium, and added at same time point as the 1% FBS culture assay. The final concentration of PMA was 50 ng/mL, and Ionomycin final concentration was 500 ng/mL.
at 37° C. with 5% CO2 and 95% humidity for 18 h˜20 h.
IC50 was calculated with the data analysis software XLfit4, General Pharmacology model 251.

`Cc1cc(S(=O)(=O)N(C)C)ccc1-c1cnc2[nH]c(C3CCCCC3)cc2n1` [Example 7, 4-(6-cyclohexyl-5H-pyrrolo[2,3-b]pyrazin-2-yl)-N,N,3-trimethylbenzenesulfonamide]: the IC50 (commonly the concentration that gives 50% inhibition) amounted to 184 nM. This counts as sub-micromolar.
To `Cc1cc(S(=O)(=O)N(C)C)ccc1-c1ncc2[nH]c(-c3c(F)cccc3Cl)cc2n1` [Example 1, 4-[6-(2-chloro-6-fluoro-phenyl)-5H-pyrrolo[3,2-d]pyrimidin-2-yl]-3,N,N-trimethyl-benzenesulfonamide] belongs 687 nM; to `Cn1nc(C(F)(F)F)cc1-c1cnc2[nH]c(C3CCCCC3)cc2n1` [Example 6, 6-Cyclohexyl-2-(1-methyl-3-(trifluoromethyl)-1H-pyrazol-5-yl)-5H-pyrrolo[2,3-b]pyrazine], 681 nM; to `Cc1cc(S(=O)(=O)N(C)C)ccc1-c1cnc2[nH]c(-c3ccccc3Cl)cc2n1` [Example 4, 4-(6-(2-Chlorophenyl)-5H-pyrrolo[2,3-b]pyrazin-2-yl)-N,N,3-trimethylbenzenesulfonamide], 133 nM.
To `Cn1nc(C(F)(F)F)cc1-c1cnc2[nH]c(-c3ccccc3Cl)cc2n1` [Example 2, 6-(2-Chloro-phenyl)-2-(2-methyl-5-trifluoromethyl-2H-pyrazol-3-yl)-5H-pyrrolo[2,3-b]pyrazine] belongs 766 nM; to `COC(=O)c1ccc(-c2cnc3[nH]c(-c4ccccc4Cl)cc3n2)c(C)c1` [Example 3, 4-[6-(2-Chloro-phenyl)-5H-pyrrolo[2,3-b]pyrazin-2-yl]-3-methyl-benzoic acid methyl ester], 205 nM; to `Cn1nc(C(F)(F)F)cc1-c1cnc2[nH]c(-c3c(F)cccc3Cl)cc2n1` [Example 5, 6-(2-chloro-6-fluorophenyl)-2-(1-methyl-3-(trifluoromethyl)-1H-pyrazol-5-yl)-5H-pyrrolo[2,3-b]pyrazine], 269 nM.
